Test results reported in ChEMBL document CHEMBL1133625, “Crystal structures of human factor Xa complexed with potent inhibitors” (J Med Chem, 2000).
pKi: −log10 of the molar value.

Legend:
[1] = target: T1, Trypsin II (Bos taurus, UniProt Q29463); assay: Binding affinity on bovine pancreatic trypsin enzyme
T1 sequence (Q29463 whole entry): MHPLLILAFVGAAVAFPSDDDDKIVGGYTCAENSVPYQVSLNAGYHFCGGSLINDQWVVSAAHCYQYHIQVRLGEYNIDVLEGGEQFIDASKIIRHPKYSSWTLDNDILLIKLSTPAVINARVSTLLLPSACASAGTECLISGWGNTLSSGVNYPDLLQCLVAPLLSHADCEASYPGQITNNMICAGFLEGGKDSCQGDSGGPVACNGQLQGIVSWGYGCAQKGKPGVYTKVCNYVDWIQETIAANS

[2] = target: Prothrombin (Homo sapiens, UniProt P00734); assay: Binding affinity on Thrombin

Row | SMILES | pKi [1] | pKi [2]
1 | O=C1[C@@H](NS(=O)(=O)c2cc3ncccc3s2)CCN1Cc1cc2cc[nH]cc-2n1 | < 5.54 | < 5.40
2 | Nc1nccc2ccc(CN3CC[C@H](NS(=O)(=O)c4cc5ncccc5s4)C3=O)cc12 | < 5.54 | 
